The record followed here is ChEMBL document CHEMBL4418282, “Compounds and methods for inhibiting fascin” (2017).

By inhibition is commonly meant the relative decrease from the control value, in per cent.

SMILES strings stand for the structures.

In one assay the target is Fascin (Homo sapiens) (UniProt Q16658). Description: Inhibition of purified fascin (unknown origin) assessed as reduction in bundle activity at 50 uM pre-incubated for 30 mins before polymerized actin addition and followed by Alexa fluro 488 phalloidin addition after 30 mins and measured after 1 hr under dark condition relative to control.
Conditions: not given
In the case of `O=C(Nc1nn(Cc2ccc(C(F)(F)F)cc2)c2ccccc12)c1cccc(Cl)c1`, the inhibition was less than 10%. The same measure, in the same setting: under `O=C(Nc1nn(Cc2ccc(C(F)(F)F)cc2)c2ccccc12)c1ccc(Cl)cc1` stands less than 10%; under `O=[N+]([O-])c1cn(Cc2ccccc2)c2ccc(Br)cc12`, less than 10%; under `FC(F)(F)c1ccc(Cn2nc(-c3cccc4ccccc34)c3ccccc32)cc1`, less than 10%.

Regarding `FC(F)(F)c1ccc(Cn2nc(Br)c3ccccc32)cc1`, the inhibition is less than 10%. On the same count and under the same terms, under `Cc1occc1-c1nn(Cc2ccc(C(F)(F)F)cc2)c2ccccc12` stands less than 10%; under `O=[N+]([O-])c1cn(Cc2ccc(C(F)(F)F)cc2)c2ccc(Br)cc12`, less than 10%; under `FC(F)(F)c1ccc(Cn2nc(-c3ccoc3)c3ccccc32)cc1`, less than 10%.

As to `CCCC(=O)Nc1nn(Cc2ccc(C(F)(F)F)cc2)c2cncc(Cl)c12`, the inhibition was less than 10%.

For the molecule `Cc1occc1C(=O)Nc1nn(Cc2ccc(C(F)(F)F)cc2)c2cncc(Cl)c12`, the inhibition was less than 10%.

On to `FC(F)(F)c1ccc(Cn2nc(-c3ccccc3)c3ccccc32)cc1`, for which the inhibition was less than 10%. Still for that read-out and setting: under `Cc1ccc(-c2nn(Cc3ccc(C(F)(F)F)cc3)c3ccccc23)o1` stands less than 10%. Still for that read-out and setting: the same measure for `CNc1nn(Cc2ccc(C(F)(F)F)cc2)c2cncc(Cl)c12`: less than 10%; for `N#Cc1ccccc1C(=O)Cc1nn(Cc2ccc(C(F)(F)F)cc2)c2ccccc12`: less than 10%; for `O=C(Nc1nn(Cc2ccc(C(F)(F)F)cc2)c2cncc(Cl)c12)c1ccoc1`: less than 10%. The same measure, in the same setting: under `Cc1nocc1C(=O)Nc1nn(Cc2ccc(C(F)(F)F)cc2)c2cncc(Cl)c12` stands less than 10%. In the case of `Cc1ccc(-c2ccc(C(=O)Nc3nn(Cc4ccc(C(F)(F)F)cc4)c4ccccc34)o2)cc1`, the inhibition was less than 10%.

Take `Cc1ncsc1C(=O)Nc1nn(Cc2ccc(C#N)cc2)c2ccccc12`: the inhibition was less than 10%. Consider `CC(=O)Nc1nn(Cc2ccc(C(F)(F)F)cc2)c2cncc(Cl)c12`, for which the inhibition was less than 10%.

In the next assay the test system is 4T1. Description: Antitumor activity against mouse 4T1 cells implanted in Balb/c mouse assessed as reduction in tumor growth in lungs at 100 mg/kg, administered daily for 2 weeks starting 7 days after tumor implantation and measured on day 28 by methylene blue staining based assay relative to control. The format is functional. The conditions noted are these: read-out: TGI.
Take `Cc1occc1C(=O)Nc1nn(Cc2ccc(C(F)(F)F)cc2)c2ccccc12` [NP-G2-044]: the inhibition in vivo at 100 mg/kg was greater than 90%. The same measure, in the same setting: the same measure for `Cc1ncsc1C(=O)Nc1nn(Cc2ccc(C(F)(F)F)cc2)c2ccccc12`: greater than 90%.
